Measurements from paper PMC9952496, “A Novel Strategy for the Design of Aurein 1.2 Analogs with Enhanced Bioactivities by Conjunction of Cell-Penetrating Regions” (Antibiotics, 2023).
Like-named read-outs stand apart in the source and are kept apart here. Residues, ends and D or L forms follow the SMILES beside them.

Legend:
[1] = test system: MCF-7 breast cancer cell line; type: cell-based, human
Protocol: (§1) The MTT test measures the anti-proliferation of the peptide by measuring MTT conversion by live cells into a formazan that cannot be dissolved in water. In this section, three cancer cell lines: human non-small-cell lung cancer cell line, NCI-H838 (ATCC-CRL-5844); human glioblastoma astrocytoma cell line, U251MG (ECACC-09063001) and human breast cancer cell line, MCF-7 (ATCC-HTB-22), were selected for the anti-proliferation study. H838 cells were cultured in Roswell Park Memorial Institute (RPMI)-1640 medium (Life Technologies, Paisley, UK) mixed with 10% (v/v) fetal bovine serum (FBS) and 1% penicillin-streptomycin (Gibco, 10,000 U/mL). U251MG and MCF-7 cells were cultured in Dulbecco’s Modified Eagle medium (DMEM) (Life Technologies, Carlsbad, CA) mixed with 10% (v/v) FBS and 1% penicillin–streptomycin (Gibco, 10,000 U/mL). The cancer cells were first seeded into the 96-well plates at a cell density of 8000 per well for 20–24 h at 37 °C. Then, the cells were starved by switching the FBS containing complete growth medium to FBS lacking serum-free medium for 4 h. Peptides were dissolved to a series of final concentrations from 10^−9 to 10^−4 M in ddH2O. After starvation, 1 μL of the peptide with 99 μL of the serum-free medium was added to the plate and then cultured for 20–24 h.; 10 µL of MTT (3-(4,5-dimethylthiazol-2-yl)-2,5-diphenyltetrazolium bromide, 5 mg/mL, Sigma, UK) were loaded into each well in the dark and incubated at 37 °C. Subsequently, the liquid in each well was removed completely before […] of DMSO was added to each well to dissolve the formazan. The plate was read at 570 nm using a Synergy HT plate reader.

[2] = test system: NCI-H838 non-small-cell lung cancer cell line; type: cell-based, human
Protocol: as §1

[3] = test system: U251MG glioblastoma astrocytoma cell line; type: cell-based, human
Protocol: as §1

[4] = test system: P. aeruginosa (ATCC 9027); type: cell-based; conditions: for MIC: ATCC 9027; for MBC: ATCC 9027, 20 h
Protocol: (§2) The antimicrobial activity evaluation was conducted by use of MIC and MBC assays, using three Gram-positive bacteria and three Gram-negative bacteria. The peptides were dissolved in dimethyl sulfoxide (DMSO) for a final concentration series from 1 to 128 µM; 20 µmol of norfloxacin was applied as the positive control, and one µL of DMSO was used as the negative control. The bacteria were inoculated in the corresponding cultural media overnight and subcultured to the desired OD value (OD = 0.23 for Gram-positive bacteria, OD = 0.4 for Gram-negative bacteria corresponding to 5 × 10^5 CFU/mL); 20 mL of culture broth and 100 µL of subcultured bacteria were mixed before being loaded onto the plate, and 1 µL of the peptide cocktail was mixed with 99 µL of diluted bacteria in 96 wells plates and then was incubated for 20 to 24 h at 37 °C. Afterward, the OD value (λ = 550 nm) of each well was detected using a Synergy HT plate reader (Biotech, Minneapolis, MN, USA). The MIC value was the lowest concentration without bacterial growth visually. Subsequently, 10 µL of the solution in each clear well was loaded onto an agar plate and cultured for 20 h. The lowest concentration without colony growth was regarded as the MBC.

[5] = test system: MRSA (ATCC 12493); type: cell-based; conditions: for MIC: ATCC 12493; for MBC: ATCC 12493, 20 h
Protocol: as §2

[6] = test system: S. aureus (ATCC CRM 6538); type: cell-based; conditions: for MIC: ATCC CRM 6538; for MBC: ATCC CRM 6538, 20 h
Protocol: as §2

[7] = test system: K. pneumoniae (ATCC 43816); type: cell-based; conditions: for MIC: ATCC 43816; for MBC: ATCC 43816, 20 h
Protocol: as §2

[8] = test system: E. coli (NCTC 8739); type: cell-based; conditions: for MIC: NCTC 8739; for MBC: NCTC 8739, 20 h
Protocol: as §2

[9] = test system: E. faecalis (NCTC 12697); type: cell-based; conditions: for MIC: NCTC 12697; for MBC: NCTC 12697, 20 h
Protocol: as §2

[10] = test system: horse erythrocytes; assay: Haemolytic activity evaluation; conditions: at the peptide's MIC value for E. coli; horse erythrocytes in PBS, 2 h at 37 °C, absorbance 490 nm, Triton X-100 positive control, n = 9; listed as KIL-1
Protocol: (§3) The hemolytic activity of the peptides on mammalian erythrocytes was examined using 2% defibrinated horse blood (TCS Biosciences Ltd., Buckinghamshire, UK). Firstly, the defibrinated horse blood was washed; 2 mL of horse blood was added into a 50 mL tube; then, 30 mL of sterilized PBS was added dropwise into the tube, and the tube was mixed in a shaking bed and then centrifuged at 930× g for 10 min. The procedure was repeated until the supernatant of the centrifuge tube was clear. Afterward, the blood cell pellet was dispersed to make a 4% suspension (v/v) by adding 50 mL of sterilized PBS. Peptides were dissolved using PBS to achieve final concentrations of 1–128 μM and then mixed with the blood cell suspensions in 1.5-mL tubes. The blood cell suspensions treated with 0.1% Triton X-100 and PBS were used as positive controls and negative controls, respectively. Then the peptide-blood mixture was incubated at 37 °C degrees for 2 h in an incubator. After incubation, the tubes were centrifuged at 930× g for 10 min, and 100 µL of the supernatants were loaded into wells of the 96-well plates. The absorbance was obtained by Synergy HT plate reader at 490 nm. The hemolytic activity was calculated using the formula, hemolysis = (absorbance of experimental groups − absorbance of negative control))/(absorbance of positive control − absorbance of negative control) × 100%.

[11] = test system: Gram-positive bacteria biofilm; type: cell-based; conditions: range over Gram-positive bacteria
Protocol: (§4) The minimum biofilm inhibition and minimum biofilm eradication concentrations were obtained by use of the MBIC and MBEC assays. The anti-biofilm activity of the peptides was evaluated by use of S. aureus (ATCC 6538), MRSA (NCTC 12493), E. faecalis (NCTC 12493), E. coli (ATCC CRM 8739), K. pneumoniae (ATCC43816), and P. aeruginosa (ATCC CRM 9027).
(§5) For the MBIC assay, the bacteria were cultured in tryptic soy broth (TSB) broth with 1% glucose for Gram-positive bacteria biofilm and Luria Bertani (LB) broth with 1% glucose for Gram-negative bacteria biofilm. Bacteria were inoculated, subcultured, and diluted in the same method described before. The peptides were prepared in a concentration of 1–128 µM; 1 µL of peptide and 99 µL of subcultured bacteria were mixed in 96 well plates and cultured at 37 °C with a shear force of 200 rpm in a humid environment for 20–24 h. Then, the plate was washed with 130 µL of PBS twice, and 130 µL of methanol was added to stabilize the biofilm overnight; then, the plate was dyed with 100 mL of 0.5% crystal violet for 15 min. The stained biofilm was then washed once more and allowed to dry overnight. The stain was dissolved in acetic acid at a 30% concentration, and it was shaken for 15 min to ensure homogeneity. A Synergy HT plate reader was then used to read the plate at 595 nm. […]

[12] = test system: Gram-positive bacteria; assay: MIC assay, summary over Gram-positive bacteria; type: cell-based; conditions: range over three Gram-positive bacteria
Protocol: as §2

[13] = test system: horse erythrocytes; conditions: red cells of horse, 2 h
Protocol: as §3

[14] = test system: Gram-negative bacteria biofilm; conditions: range over Gram-negative bacteria
Protocol: as §4, §5

CC[C@H](C)[C@H](NC(=O)[C@H](CCCCN)NC(=O)[C@H](CCCCN)NC(=O)[C@@H](NC(=O)[C@@H](NC(=O)[C@H](CCCCN)NC(=O)[C@H](CCCCN)NC(=O)[C@@H](NC(=O)[C@@H](NC(=O)[C@H](CC(=O)O)NC(=O)[C@H](Cc1ccccc1)NC(=O)[C@H](CC(C)C)NC(=O)CN)[C@@H](C)CC)[C@@H](C)CC)[C@@H](C)CC)[C@@H](C)CC)C(=O)N[C@@H](C)C(=O)N[C@@H](CCC(=O)O)C(=O)N[C@@H](CO)C(=O)N[C@@H](Cc1ccccc1)C(N)=O [IK-1] (H-GLFDIIKKIIKKIAESF-NH2)
IC50 [1]: 3 ± 0.76 µM
IC50 [2]: 3.5 ± 0.74 µM
IC50 [3]: 3.4 ± 0.71 µM
MIC [4]: 16 µM
MBC [4]: 32 µM
MIC [5]: 16 µM
MBC [5]: 16 µM
MIC [6]: 8 µM
MBC [6]: 8 µM
MIC [7]: >128 µM
MBC [7]: >128 µM
MIC [8]: 8 µM
MBC [8]: 8 µM
MIC [9]: 8 µM
MBC [9]: 16 µM

CC[C@H](C)[C@H](NC(=O)[C@H](CCCCN)NC(=O)[C@H](CCCCN)NC(=O)[C@@H](NC(=O)[C@@H](NC(=O)[C@H](CCCCN)NC(=O)[C@H](CCCCN)NC(=O)[C@@H](NC(=O)[C@@H](NC(=O)[C@H](CCCCN)NC(=O)[C@H](CCCCN)NC(=O)[C@@H](NC(=O)[C@@H](NC(=O)[C@H](CC(=O)O)NC(=O)[C@H](Cc1ccccc1)NC(=O)[C@H](CC(C)C)NC(=O)CN)[C@@H](C)CC)[C@@H](C)CC)[C@@H](C)CC)[C@@H](C)CC)[C@@H](C)CC)[C@@H](C)CC)C(=O)N[C@@H](C)C(=O)N[C@@H](CCC(=O)O)C(=O)N[C@@H](CO)C(=O)N[C@@H](Cc1ccccc1)C(N)=O [IK-2] (H-GLFDIIKKIIKKIIKKIAESF-NH2)
IC50 [1]: 3.2 ± 0.87 µM
IC50 [2]: 3.7 ± 0.77 µM
IC50 [3]: 3.6 ± 0.18 µM
MIC [4]: 64 µM
MBC [4]: 128 µM
MIC [5]: >128 µM
MBC [5]: >128 µM
MIC [6]: >128 µM
MBC [6]: >128 µM
MIC [7]: 16 µM
MBC [7]: 16 µM
MIC [8]: 8 µM
MBC [8]: 8 µM
MIC [9]: >128 µM
MBC [9]: >128 µM

CC[C@H](C)[C@H](NC(=O)[C@H](CCCCN)NC(=O)[C@H](CCCCN)NC(=O)[C@@H](NC(=O)[C@@H](NC(=O)[C@H](CCCCN)NC(=O)[C@H](CCCCN)NC(=O)[C@@H](NC(=O)[C@@H](NC(=O)[C@H](CCCCN)NC(=O)[C@H](CCCCN)NC(=O)[C@@H](NC(=O)[C@@H](NC(=O)[C@H](CC(=O)O)NC(=O)[C@H](Cc1ccccc1)NC(=O)[C@H](CC(C)C)NC(=O)CN)[C@@H](C)CC)[C@@H](C)CC)[C@@H](C)CC)[C@@H](C)CC)[C@@H](C)CC)[C@@H](C)CC)C(N)=O [IK-3] (H-GLFDIIKKIIKKIIKKI-NH2)
IC50 [1]: 3.4 ± 0.71 µM
IC50 [2]: 2.99 µM
IC50 [3]: 3.3 ± 0.63 µM
MIC [4]: 16 µM
MBC [4]: 16 µM
MIC [5]: 16 µM
MBC [5]: 32 µM
MIC [6]: 16 µM
MBC [6]: 16 µM
MIC [7]: 8 µM
MBC [7]: 8 µM
MIC [8]: 4 µM
MBC [8]: 4 µM
MIC [9]: 16 µM
MBC [9]: 32 µM

CC[C@H](C)[C@H](NC(=O)[C@H](CC(=O)O)NC(=O)[C@H](Cc1ccccc1)NC(=O)[C@H](CC(C)C)NC(=O)CN)C(=O)N[C@H](C(=O)N[C@@H](CCCCN)C(=O)N[C@@H](CCCCN)C(=O)N[C@@H](CC(C)C)C(=O)N[C@@H](C)C(=O)N[C@@H](CCC(=O)O)C(=O)N[C@@H](CO)C(=O)N[C@@H](Cc1ccccc1)C(N)=O)[C@@H](C)CC [KLA-1] (H-GLFDIIKKLAESF-NH2)
IC50 [1]: 17.6 ± 0.79 µM
IC50 [2]: 29.4 ± 0.22 µM
IC50 [3]: 34.1 ± 0.21 µM
Hemolysis [10]: almost no hemolysis was detected
MIC [4]: 64 µM
MBC [4]: 128 µM
MIC [5]: 16 µM
MBC [5]: 32 µM
MIC [6]: 16 µM
MBC [6]: 16 µM
MIC [7]: 32 µM
MBC [7]: 32 µM
MIC [8]: 8 µM
MBC [8]: 16 µM
MIC [9]: 32 µM
MBC [9]: 32 µM

CC[C@H](C)[C@H](NC(=O)[C@H](CC(=O)O)NC(=O)[C@H](Cc1ccccc1)NC(=O)[C@H](CC(C)C)NC(=O)CN)C(=O)N[C@H](C(=O)N[C@@H](CCCCN)C(=O)N[C@@H](CCCCN)C(=O)N[C@@H](CC(C)C)C(=O)N[C@@H](C)C(=O)N[C@@H](CCCCN)C(=O)N[C@@H](CC(C)C)C(=O)N[C@@H](C)C(=O)N[C@@H](CCC(=O)O)C(=O)N[C@@H](CO)C(=O)N[C@@H](Cc1ccccc1)C(N)=O)[C@@H](C)CC [KLA-2] (H-GLFDIIKKLAKLAESF-NH2)
IC50 [1]: 3.55 µM
IC50 [2]: 4.6 ± 0.12 µM
IC50 [3]: 5 ± 0.12 µM
MBIC [11]: 2 to 16 µM
MIC [4]: 16 µM
MBC [4]: 16 µM
MIC [5]: 4 µM
MBC [5]: 4 µM
MBC [6]: 2/2 μM
MIC [7]: 4 µM
MBC [7]: 4 µM
MIC [8]: 2 µM
MBC [8]: 2 µM
MIC [9]: 16 µM
MBC [9]: 16 µM

CC[C@H](C)[C@H](NC(=O)[C@H](CCCCN)NC(=O)[C@H](CCCCN)NC(=O)[C@@H](NC(=O)[C@@H](NC(=O)[C@H](CC(=O)O)NC(=O)[C@H](Cc1ccccc1)NC(=O)[C@H](CC(C)C)NC(=O)CN)[C@@H](C)CC)[C@@H](C)CC)C(=O)N[C@@H](C)C(=O)N[C@@H](CCC(=O)O)C(=O)N[C@@H](CO)C(=O)N[C@@H](Cc1ccccc1)C(N)=O [aurein 1.2] (H-GLFDIIKKIAESF-NH2)
IC50 [1]: 25.9 ± 0.79 µM
IC50 [2]: 26.9 µM
IC50 [3]: 38.4 µM
MICs against Gram-positive bacteria [12]: 8 to 32 µM
HC50 [13]: around 30 μM
Hemolysis [13]: 20.56%
MIC [4]: 64 µM
MBC [4]: 128 µM
MIC [5]: 16 µM
MBC [5]: 16 µM
MIC [6]: 8 µM
MBC [6]: 8 µM
MIC [7]: 64 µM
MBC [7]: 64 µM
MIC [8]: 16 µM
MBC [8]: 16 µM
MIC [9]: 32 µM
MBC [9]: 32 µM
concentration effective in prevention of biofilm formation (MBIC) [14]: 64 to 128 µM
